Experimental data: US20240182445A1 (ONO PHARMACEUTICAL CO., LTD., priority 2019, published 2024)

Target: T1, human TREK-1 (Homo sapiens, UniProt O95069)
T1 construct: expressed in transfected cells
T1 sequence (O95069 1-426): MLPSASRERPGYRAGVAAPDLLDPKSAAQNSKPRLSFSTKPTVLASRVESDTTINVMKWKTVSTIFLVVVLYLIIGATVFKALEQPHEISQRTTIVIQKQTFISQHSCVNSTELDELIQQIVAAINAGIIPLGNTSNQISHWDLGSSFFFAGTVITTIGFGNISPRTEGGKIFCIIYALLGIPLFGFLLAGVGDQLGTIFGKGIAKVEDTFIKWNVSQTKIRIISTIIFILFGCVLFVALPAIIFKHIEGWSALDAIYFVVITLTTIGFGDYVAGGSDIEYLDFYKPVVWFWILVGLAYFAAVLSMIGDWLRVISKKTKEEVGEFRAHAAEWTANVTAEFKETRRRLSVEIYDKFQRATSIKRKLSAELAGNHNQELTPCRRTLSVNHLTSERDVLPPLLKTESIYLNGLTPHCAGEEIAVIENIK
Experiment: TREK-1 Thallium (Tl+) flux assay, Method 1
Assay type: cell-based
Conditions: TREK-1 Thallium (Tl+) flux assay; values without footnote *12 are Method 1
Protocol: The term “thallium flux assay” herein refers to a fluorescence-based assay used to monitor the activity of TREK channels. Thallium is a congener of potassium that readily fluxes through the pore of TREK channels. Thallium flux is measured using a commercially available, thallium-sensitive fluorescent dye called Thallos. The detail method is described below.
CHO-K1 cells stably expressing human TREK-1 were plated in 384-well plates, cultured overnight, loaded with Thallos dye the following day. Test compounds or control compound (tert-butyl (3-((4-(benzyloxy)-2-methylphenyl)carbamoyl)-4-chlorophenyl)carbamate) or 0.3% DMSO (vehicle control) which were prepared on separate plates were added to the cell plates and incubated for 10 min, and then the cells were treated with thallium stimulus buffer to initiate thallium flux. To measure the efficacy and potency of test compounds, the change in fluorescence intensity (ΔRatio) and % inhibition were calculated using the following equations:
ΔRatio=(fluorescence intensity at 25 seconds after thallium addition)/(average of fluorescent intensity before thallium addition)

Row | SMILES | IC50
1 | CCC(=O)N1CCC(n2ncc(Cl)c2C(=O)Nc2ncc(C#Cc3ccccc3)cc2C)CC1 [Compound 41, 4-chloro-N-(3-methyl-5-(phenylethynyl)pyridin-2-yl)-1-(1-propionylpiperidin-4-yl)-1H-pyrazole-5-carboxamide] | 130 nM
2 | CC(=O)N1CCC(Cn2ncc(Cl)c2C(=O)Nc2ncc(C#Cc3ccccc3)cc2F)CC1 [Compound 42, 1-((1-acetylpiperidin-4-yl)methyl)-4-chloro-N-(3-fluoro-5-(phenylethynyl)pyridin-2-yl)-1H-pyrazole-5-carboxamide] | 130 nM
3 | O=C(Nc1ncc(C#Cc2ccccc2)cc1F)c1c(Cl)cnn1CC1CCN(C(=O)C2CC2)C1 (stereo not shown) [Compound 43, 4-chloro-1-((1-(cyclopropanecarbonyl)pyrrolidin-3-yl)methyl)-N-(3-fluoro-5-(phenylethynyl)pyridin-2-yl)-1H-pyrazole-5-carboxamide] | 130 nM
4 | CC(=O)N1CCC(Cn2ncc(Cl)c2C(=O)Nc2ncc(C#Cc3ccccc3)cc2F)C1 (stereo not shown) [Compound 44, 1-((1-acetylpyrrolidin-3-yl)methyl)-4-chloro-N-(3-fluoro-5-(phenylethynyl)pyridin-2-yl)-1H-pyrazole-5-carboxamide] | 130 nM
5 | CC(C)C(=O)N[C@H]1CC[C@@H](n2ncc(Cl)c2C(=O)Nc2ncc(C#Cc3ccc(F)cc3)cc2F)CC1 [Compound 45, 4-chloro-N-(3-fluoro-5-((4-fluorophenyl)ethynyl)pyridin-2-yl)-1-(cis-4-isobutyramidocyclohexyl)-1H-pyrazole-5-carboxamide] | 130 nM
6 | Cc1cc(C#Cc2cccs2)cnc1NC(=O)c1c(Cl)cnn1C1CC2(C1)CN(C(=O)C(C)C)C2 [Compound 46, 4-chloro-1-(2-isobutyryl-2-azaspiro[3.3]heptan-6-yl)-N-(3-methyl-5-(thiophen-2-ylethynyl)pyridin-2-yl)-1H-pyrazole-5-carboxamide] | 130 nM
7 | CC(=O)N[C@H]1CC[C@H](n2ncc(Cl)c2C(=O)Nc2ncc(C#Cc3ccccc3)cc2C)CC1 [Compound 47, 1-(trans-4-acetamidocyclohexyl)-4-chloro-N-(3-methyl-5-(phenylethynyl)pyridin-2-yl)-1H-pyrazole-5-carboxamide] | 130 nM
8 | CC(=O)N1CC[C@H](Cn2ncc(Cl)c2C(=O)Nc2ncc(C#Cc3ccccc3)cc2F)[C@H](F)C1 [Compound 48, 1-(((3S,4R)-1-acetyl-3-fluoropiperidin-4-yl)methyl)-4-chloro-N-(3-fluoro-5-(phenylethynyl)pyridin-2-yl)-1H-pyrazole-5-carboxamide] | 130 nM
9 | Cc1cc(C#Cc2ccccc2)cnc1NC(=O)c1c(Cl)cnn1CC1(C#N)CCN(C(=O)C(C)C)CC1 [Compound 49, 4-chloro-1-((4-cyano-1-isobutyrylpiperidin-4-yl)methyl)-N-(3-methyl-5-(phenylethynyl)pyridin-2-yl)-1H-pyrazole-5-carboxamide] | 130 nM
10 | O=C(Nc1ncc(C#Cc2cccc(F)c2)cc1F)c1c(Cl)cnn1CC1CCOCC1 [Compound 50, 4-chloro-N-(3-fluoro-5-((3-fluorophenyl)ethynyl)pyridin-2-yl)-1-((tetrahydro-2H-pyran-4-yl)methyl)-1H-pyrazole-5-carboxamide] | 140 nM
11 | O=C(Nc1ncc(C#Cc2ccccc2)cc1F)c1c(Cl)cnn1C1CCOCC1 [Compound 51, 4-chloro-N-(3-fluoro-5-(phenylethynyl)pyridin-2-yl)-1-(tetrahydro-2H-pyran-4-yl)-1H-pyrazole-5-carboxamide] | 140 nM
12 | Cc1cc(C#Cc2ccccc2)cnc1NC(=O)c1c(Cl)cnn1CC1CCN(C(=O)C2CC2)CC1 [Compound 52, 4-chloro-1-((1-(cyclopropanecarbonyl)piperidin-4-yl)methyl)-N-(3-methyl-5-(phenylethynyl)pyridin-2-yl)-1H-pyrazole-5-carboxamide] | 140 nM
13 | Cc1cc(C#Cc2ccccc2)cnc1NC(=O)c1c(Cl)cnn1CC1CCN(C(=O)C(C)C)CC1 [Compound 53, 4-chloro-1-((1-isobutyrylpiperidin-4-yl)methyl)-N-(3-methyl-5-(phenylethnyl)pyridin-2-yl)-1H-pyrazole-5-carboxamide] | 140 nM
14 | O=C(Nc1ncc(C#Cc2ccccc2)cc1F)c1c(Cl)cnn1C1CCN(C(=O)C(F)(F)F)CC1 [Compound 54, 4-chloro-N-(3-fluoro-5-(phenylethynyl)pyridin-2-yl)-1-(1-(2,2,2-trifluoroacetyl)piperidin-4-yl)-1H-pyrazole-5-carboxamide] | 140 nM
15 | O=C(Nc1ncc(C#Cc2ccccc2)cc1F)c1c(Cl)cnn1C1CCN(C(=O)CC(F)(F)F)CC1 [Compound 55, 4-chloro-N-(3-fluoro-5-(phenylethynyl)pyridin-2-yl)-1-(1-(3,3,3-trifluoropropanoyl)piperidin-4-yl)-1H-pyrazole-5-carboxamide] | 140 nM
16 | O=C(Nc1ncc(C#Cc2ccccc2)cc1F)c1c(Cl)cnn1CCC1CCN(C(=O)C2CC2)CC1 [Compound 56, 4-chloro-1-(2-(1-(cyclopropanecarbonyl)piperidin-4-yl)ethyl)-N-(3-fluoro-5-(phenylethynyl)pyridin-2-yl)-1H-pyrazole-5-carboxamide] | 140 nM
17 | Cc1cc(C#Cc2cccs2)cnc1NC(=O)c1c(Cl)cnn1CC1CCN(C(=O)C2CC2)CC1 [Compound 57, 4-chloro-1-((1-(cyclopropanecarbonyl)piperidin-4-yl)methyl)-N-(3-methyl-5-(thiophen-2-ylethynyl)pyridin-2-yl)-1H-pyrazole-5-carboxamide] | 140 nM
18 | CC(C)C(=O)N1CC[C@H](Cn2ncc(Cl)c2C(=O)Nc2ncc(C#Cc3ccccc3)cc2F)[C@H](F)C1 [Compound 58, 4-chloro-1-(((3S,4R)-3-fluoro-1-isobutyrylpiperidin-4-yl)methyl)-N-(3-fluoro-5-(phenylethynyl)pyridin-2-yl)-1H-pyrazole-5-carboxamide] | 140 nM
19 | N#CCCCn1ncc(Cl)c1C(=O)Nc1ncc(C#Cc2ccccc2)cc1F [Compound 59, 4-chloro-1-(3-cyanopropyl)-N-(3-fluoro-5-(phenylethynyl)pyridin-2-yl)-1H-pyrazole-5-carboxamide] | 150 nM
20 | O=C(Nc1ncc(C#Cc2ccccc2)cc1F)c1c(Cl)cnn1C[C@H]1CCOC1 [Compound 60, (R)-4-chloro-N-(3-fluoro-5-(phenylethynyl)pyridin-2-yl)-1-((tetrahydrofuran-3-yl)methyl)-1H-pyrazole-5-carboxamide] | 150 nM
21 | CC(=O)N1CCC(n2ncc(Cl)c2C(=O)Nc2ncc(C#Cc3ccccc3)cc2C)CC1C (stereo not shown) [Compound 61, 1-(1-acetyl-2-methylpiperidin-4-yl)-4-chloro-N-(3-methyl-5-(phenylethynyl)pyridin-2-yl)-1H-pyrazole-5-carboxamide] | 150 nM
22 | CC(=O)N1CCC(n2ncc(Cl)c2C(=O)Nc2ncc(C#Cc3ccc(F)cc3)cc2C)CC1C (stereo not shown) [Compound 62, 1-(1-acetyl-2-methylpiperidin-4-yl)-4-chloro-N-(5-((4-fluorophenyl)ethynyl)-3-methylpyridin-2-yl)-1H-pyrazole-5-carboxamide] | 150 nM
23 | Cc1cc(C#Cc2cccs2)cnc1NC(=O)c1c(Cl)cnn1C1CCN(C(=O)C2CC2)CC1 [Compound 63, 4-chloro-1-(1-(cyclopropanecarbonyl)piperidin-4-yl)-N-(3-methyl-5-(thiophen-2-ylethynyl)pyridin-2-yl)-1H-pyrazole-5-carboxamide] | 150 nM
24 | CC(=O)N[C@H]1C[C@@H](n2ncc(Cl)c2C(=O)Nc2ncc(C#Cc3ccccc3)cc2C)C1 [Compound 64, 1-(cis-3-acetamidocyclobutyl)-4-chloro-N-(3-methyl-5-(phenylethynyl)pyridin-2-yl)-1H-pyrazole-5-carboxamide] | 150 nM
25 | Cc1cc(C#Cc2ccc(F)cc2)cnc1NC(=O)c1c(Cl)cnn1C1CCN(C(=O)C2COCCO2)CC1 (stereo not shown) [Compound 65, 1-(1-(1,4-dioxane-2-carbonyl)piperidin-4-yl)-4-chloro-N-(5-((4-fluorophenyl)ethynyl)-3-methylpyridin-2-yl)-1H-pyrazole-5-carboxamide] | 150 nM
26 | CCC(=O)N1CCC(n2ncc(Cl)c2C(=O)Nc2ncc(C#Cc3ccc(F)cc3)cc2C)CC1 [Compound 66, 4-chloro-N-(5-((4-fluorophenyl)ethynyl)-3-methylpyridin-2-yl)-1-(1-propionylpiperidin-4-yl)-1H-pyrazole-5-carboxamide] | 150 nM
27 | CCC(=O)N1CCC(n2ncc(Cl)c2C(=O)Nc2ncc(C#Cc3cccs3)cc2F)CC1 [Compound 67, 4-chloro-N-(3-fluoro-5-(thiophen-2-ylethynyl)pyridin-2-yl)-1-(1-propionylpiperidin-4-yl)-1H-pyrazole-5-carboxamide] | 150 nM
28 | O=C(Nc1ncc(C#Cc2ccccc2)cc1F)c1c(Cl)cnn1CC1CCOCC1 [Compound 68, 4-chloro-N-(3-fluoro-5-(phenylethynyl)pyridin-2-yl)-1-((tetrahydro-2H-pyran-4-yl)methyl)-1H-pyrazole-5-carboxamide] | 160 nM
